{
  "source": "paper PMC4658182",
  "about": "“The Synthetic Antimicrobial Peptide 19-2.5 Interacts with Heparanase and Heparan Sulfate in Murine and Human Sepsis” (PLoS ONE, 2015)",
  "key": {"heparanase [1]": {"system": "heparanase", "test": "Isothermal titration calorimetry, binding to heparanase", "settings": "ITC, 37°C", "protocol": "(§1) Isothermal titration calorimetry (ITC) experiments were performed as previously described. Briefly, the binding of peptide 19–2.5 to heparanase or HS-fragments was recorded by measuring the enthalpy change of the reaction at 37°C. For this, a total of 100 μg/ml heparanase (R&D Systems Europe Ltd., Abingdon, United Kingdom) and 200 μg/ml HS-fragments (H7640 Sigma-Aldrich, St. Louis, MO, USA) were dispersed into the calorimetric cell, and 2 mM peptide 19–2.5 was titrated to this dispersion stepwise in 3 μl portions. After exploring experiments, the concentration of HS was 100 μg/ml titrated with 1.5 μl of peptide 19–2.5 (2 mM) 20 times at 37°C.\n(§2) Fig 5 Isothermal titration calorimetry (ITC). For the ITC experiments, 2 mM peptide 19–2.5 was titrated to this dispersion stepwise in 3 μl portions into (A) 200 μg/ml heparan sulfate-fragments (HS) and (B) 100 μg/ml heparanase (Hep). In each titration, the resulting heat signals P were recorded (peak downwards are exothermic, peaks upwards endothermic reactions) against time (min) and presented in the top parts of Fig 5A and 5B. The integrated enthalpy changes ΔH versus [peptide]:[HS-fragments] (A) and [peptide]:[heparanase] (B) concentration ratios of the single titrations are illustrated in the bottom parts of Fig 5A and 5B."}, "heparanase [2]": {"system": "heparanase", "test": "Plasma heparanase level (ELISA), CLP septic mice", "format": "in vivo, murine", "settings": "CLP-mice (NMRI), 24 h after CLP, peptide i.v. infusion 20 μg/ml, 100 μl/h vs NaCl 0.9%, n = 6 per group, Fig 1A, ***p < 0.0001", "protocol": "Heparanase levels in human and murine plasma were measured using a commercial ELISA kit (No.: E03H0100, AMS Biotechnology, Oxon, United Kingdom) according to the manufacturer’s instructions. The ELISA´s detection range is 1.0 ng/ml– 5000 ng/ml.\n(§3) The murine model of polymicrobial sepsis was divided into three steps as described before. Briefly, in a first step 12 NMRI mice underwent a catheterization procedure under general (isoflurane 1% to 2% in oxygen/air mix with a FiO2 of 0.3) and local (0.2 ml lidocaine 2%) anesthesia. A central vein catheter (PE-tube, self-made) was implanted in the jugular vein. After further local infiltration with lidocaine, the neck was closed by single suture. To prevent hypothermia all animals were kept on a heating pad throughout the surgical procedure. Mice were transferred back into the cage to rest for 48h. The i.v.-line was connected to the syringe pump at a rate of 100 μl/h (NaCl 0.9%).\n(§4) In a second step, general and local anesthesia for cecal ligature and puncture (CLP) was performed as described above. The animal were transferred to the cage and reconnected with the i.v.-line. Depending on the group, peptide 19–2.5 infusion (20 μg/ml, 100 μl/h) or NaCl 0.9% infusion (100 μl/h) was started.\nFinally, in a third step all animals were killed 24 h after CLP. […]"}, "heparanase [3]": {"system": "heparanase", "test": "Plasma heparanase activity, CLP septic mice", "format": "in vivo, murine", "settings": "CLP-mice (NMRI), 24 h after CLP; peptide i.v. infusion 20 μg/ml, 100 μl/h vs NaCl 0.9%; n = 6 per group; Fig 3A", "protocol": "Heparanase activity in human and murine plasma was quantified using the commercial available Heparanase Assay Kit (No.: Ra001-BE-K, AMS Biotechnology, Oxon, United Kingdom) according to the manufacturer’s instructions.\nas §3, §4\nFinally, in a third step all animals were killed 24 h after CLP. Therefore, the animals were anesthetized as described above, brought to a prone position and the abdomen and thorax were opened. […]"}, "murine cells": {"system": "murine cells", "settings": "cited from earlier work", "text": "The synthetic antimicrobial peptide 19–2.5 belongs to the class of synthetic anti-lipopolysaccharide peptides (SALP = synthetic anti-LPS peptides). […] Thus, we investigated the impact of peptide 19–2.5 on levels of circulating HS-fragments in vivo. […] We postulate two ways by which peptide 19–2.5 reduces levels of circulating HS-fragments in mice: […]"}, "[4]": {"test": "Isothermal titration calorimetry, binding to HS-fragments", "settings": "ITC; for Ka binding constant / Kd / N stoichiometry of binding / ΔG Gibbs free energy / ΔS entropy change: 2 mM peptide titrated 20 times 1.5 μl into 100 μg/ml HS", "protocol": "as §1, §2"}, "[5]": {"test": "Circulating HS-fragments in plasma (ELISA), CLP septic mice", "format": "in vivo, murine", "settings": "CLP-mice (NMRI), 24 h after CLP, peptide i.v. infusion 20 μg/ml, 100 μl/h vs NaCl 0.9%, n = 6 per group, Fig 4, ***p < 0.0001", "protocol": "Levels of circulating HS-fragments in murine plasma were measured using a commercial ELISA kit (No.: E0623Ge, AMS Biotechnology, Oxon, United Kingdom) according to the manufacturer’s instructions. Circulating HS-fragments in plasma were defined by the sum of the HS derived disaccharides obtained after enzymatic cleavage by heparanase. Due to the ELISA´s detection range of 4.69 ng/ml– 300 ng/ml samples were diluted 1:30 in physiological saline (0.9%). The sensitivity of the ELISA is 1.17ng/ml.\nas §3\nIn a second step, general and local anesthesia for cecal ligature and puncture (CLP) was performed as described above. The animal were transferred to the cage and reconnected with the i.v.-line. […]"}, "[6]": {"settings": "2 mM peptide in 3 μl portions into 100 μg/ml heparanase, Fig 5B"}, "[7]": {"settings": "heparanase (Fig 5B) compared with HS-fragments (Fig 5A)"}, "[8]": {"settings": "37°C, 2 mM peptide in 3 μl portions into 200 μg/ml HS-fragments, Fig 5A"}},
  "note": "Like-named read-outs stand apart in the source and are kept apart here.",
  "data": [
    {"substance": "peptide 19–2.5: synthetic antimicrobial peptide 19–2.5 belongs to the class of synthetic anti-lipopolysaccharide peptides (SALP = synthetic anti-LPS peptides)", "values": [
      {"measurement": "enthalpy change (ΔH) at the beginning of the titration", "setting": "heparanase [1]; [6]", "result": "approximately −25 kJ/mol"},
      {"measurement": "heat of reaction on titration to heparanase", "setting": "heparanase [1]; [6]", "result": "exothermic reaction"},
      {"measurement": "ΔH value at high peptide concentrations", "setting": "heparanase [1]; [6]", "result": "around 12 kJ/mole"},
      {"measurement": "binding constant for heparanase", "setting": "heparanase [1]; 2 mM peptide into 100 μg/ml heparanase, Fig 5B", "result": "does not allow calculating a binding constant"},
      {"measurement": "saturation character of ΔH values", "setting": "heparanase [1]; 2 mM peptide into 100 μg/ml heparanase, no sigmoidal curve, Fig 5B", "result": "do not have a saturation character"},
      {"measurement": "peptide concentrations at which the processes take place vs HS-fragments", "setting": "heparanase [1]; [7]", "result": "orders of magnitude higher than those for the interaction with HS-fragments"},
      {"measurement": "ΔH values at the beginning of the titration vs HS-fragments", "setting": "heparanase [1]; [7]", "result": "much lower than those for the HS-fragments titration"},
      {"measurement": "plasma heparanase level, untreated CLP-mice vs peptide-treated", "setting": "heparanase [2]", "result": "significantly higher levels of plasma heparanase compared to mice treated with peptide 19–2.5"},
      {"measurement": "plasma heparanase activity vs untreated control", "setting": "heparanase [3]", "result": "significant lower heparanase activity compared to untreated control animals"},
      {"measurement": "inflammatory response in murine cells stimulated with HS-fragments", "setting": "murine cells; stimulated with HS-fragments in vitro", "result": "able to decrease the inflammatory response in murine cells stimulated with HS-fragments in vitro"},
      {"measurement": "inflammatory response in murine cells stimulated with PAMPs and DAMPs", "setting": "murine cells; stimulated with both PAMPs and DAMPs", "result": "able to decrease the inflammatory response in murine cells stimulated with both PAMPs and DAMPs"},
      {"measurement": "[Peptide 19–2.5]:[HS] weight ratio at saturation", "setting": "[4]; [8]", "result": "~0.6"},
      {"measurement": "heat of reaction on titration to HS-fragments", "setting": "[4]; [8]", "result": "high exothermic reaction"},
      {"measurement": "Ka binding constant", "setting": "[4]; 37°C, experiment 1", "result": "1.93e+06", "unit": "M⁻¹"},
      {"measurement": "Kd", "setting": "[4]; 37°C, experiment 1", "result": 518, "unit": "nM"},
      {"measurement": "N stoichiometry of binding", "setting": "[4]; 37°C, experiment 1", "result": 0.511, "unit": "w/w ratio"},
      {"measurement": "ΔG Gibbs free energy", "setting": "[4]; 37°C, experiment 1", "result": -8.918, "unit": "kcal/mol"},
      {"measurement": "ΔS entropy change", "setting": "[4]; 37°C, experiment 1", "result": 4.46, "unit": "cal/mol/K"},
      {"measurement": "Ka binding constant", "setting": "[4]; 37°C, experiment 2", "result": "1.52e+07", "unit": "M⁻¹"},
      {"measurement": "Kd", "setting": "[4]; 37°C, experiment 2", "result": 65.7, "unit": "nM"},
      {"measurement": "N stoichiometry of binding", "setting": "[4]; 37°C, experiment 2", "result": 0.475, "unit": "w/w ratio"},
      {"measurement": "ΔG Gibbs free energy", "setting": "[4]; 37°C, experiment 2", "result": -10.192, "unit": "kcal/mol"},
      {"measurement": "ΔS entropy change", "setting": "[4]; 37°C, experiment 2", "result": 6.42, "unit": "cal/mol/K"},
      {"measurement": "Ka binding constant", "setting": "[4]; 37°C, experiment 3", "result": "1.55e+07", "unit": "M⁻¹"},
      {"measurement": "Kd", "setting": "[4]; 37°C, experiment 3", "result": 64.5, "unit": "nM"},
      {"measurement": "N stoichiometry of binding", "setting": "[4]; 37°C, experiment 3", "result": 0.547, "unit": "w/w ratio"},
      {"measurement": "ΔG Gibbs free energy", "setting": "[4]; 37°C, experiment 3", "result": -10.201, "unit": "kcal/mol"},
      {"measurement": "ΔS entropy change", "setting": "[4]; 37°C, experiment 3", "result": 10.8, "unit": "cal/mol/K"},
      {"measurement": "Ka binding constant", "setting": "[4]; 37°C, experiment 4", "result": "1.2e+07", "unit": "M⁻¹"},
      {"measurement": "Kd", "setting": "[4]; 37°C, experiment 4", "result": 83.3, "unit": "nM"},
      {"measurement": "N stoichiometry of binding", "setting": "[4]; 37°C, experiment 4", "result": 0.534, "unit": "w/w ratio"},
      {"measurement": "ΔG Gibbs free energy", "setting": "[4]; 37°C, experiment 4", "result": -10.046, "unit": "kcal/mol"},
      {"measurement": "ΔS entropy change", "setting": "[4]; 37°C, experiment 4", "result": 6.77, "unit": "cal/mol/K"},
      {"measurement": "Ka binding constant", "setting": "[4]; 37°C, mean of n = 4", "result": "1.12e+07", "unit": "M⁻¹"},
      {"measurement": "N stoichiometry of binding", "setting": "[4]; 37°C, mean of n = 4", "result": 0.520, "unit": "w/w ratio"},
      {"measurement": "ΔG Gibbs free energy", "setting": "[4]; 37°C, mean of n = 4", "result": -9.839, "unit": "kcal/mol"},
      {"measurement": "ΔS entropy change", "setting": "[4]; 37°C, mean of n = 4", "result": 7.11, "unit": "cal/mol/K"},
      {"measurement": "Kd", "setting": "[4]; 37°C, mean of n = 4, read-out: Kd", "result": 89.2, "unit": "nM"},
      {"measurement": "titration curve shape with HS-fragments", "setting": "[4]; Fig 5A", "result": "S-shaped curve with saturation characteristic for a complex formation"},
      {"measurement": "levels of circulating HS-fragments in plasma vs untreated control", "setting": "[5]", "result": "significantly decreased in CLP-mice treated with peptide 19–2.5 compared to untreated control animals"}
    ]}
  ]
}
